Assay results: patent US6656709B1, “Methods of increasing the production of cobalamins using cob gene expression” (priority 1990, dated 2003)

What was measured:
[1] = biological target: T1, P. denitrificans NN:DMBI PRT (Sinorhizobium sp, UniProt P29935); assay: Specificity of NN:DMBI PRT for benzimidazole substrates; type: biochemical, Pseudomonas denitrificans; conditions: NaMN concentration fixed at 2 mM
T1 construct: the amino-terminal methionine is definitely excised in vivo by methionine aminopeptidase; made in house; host or cells: Pseudomonas denitrificans SC510 Rif^r carrying plasmid pXL1490B (cobU and cobV amplified)
T1 sequence (P29935 2-338 limits assumed): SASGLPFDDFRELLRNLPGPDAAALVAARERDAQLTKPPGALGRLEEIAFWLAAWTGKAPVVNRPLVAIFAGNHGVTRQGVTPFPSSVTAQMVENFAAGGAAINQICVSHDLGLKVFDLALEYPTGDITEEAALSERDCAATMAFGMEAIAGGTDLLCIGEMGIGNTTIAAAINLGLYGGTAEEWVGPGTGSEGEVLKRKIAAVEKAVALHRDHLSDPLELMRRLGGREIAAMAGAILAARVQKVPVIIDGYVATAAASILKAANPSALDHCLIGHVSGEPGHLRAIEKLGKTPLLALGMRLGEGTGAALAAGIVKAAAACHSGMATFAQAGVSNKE
Protocol: a) Assay of Nicotinate-nucleotide:dimethylbenzimidazole phosphoribosyltransferase activity (FIG. 5, reaction 5). This example illustrates the assay of an enzymatic activity directly linked to the pathway of biosynthesis of cobalamins. The enzyme in question is nicotinate-nucleotide:dimethylbenzimidazole phosphoribosyl-transferase (NN:DMBI PRT) (EC 2.4.2.21). The fractions containing NN:DMBI PRT activity (approximately 5 units) are incubated at 30° C. for 8 min in 0.1 M glycine-NaOH buffer pH 9.7 (500 μl) in the presence of 1 mM NaMN (nicotinic acid mononucleotide) and 10 μM DMBI. The reaction is then stopped by heating to 80° C. for 10 min, the reaction mixture is diluted with water (4 volumes) and this solution (100 μl) is injected onto a 15-cm Nucleosil 5-C8 HPLC column eluted with a 0.1 M potassium phosphate pH 2.9/acetonitrile (93:7) mixture at a flow rate of 1 ml/min. The α-ribazole 5′-phosphate is detected and quantified by fluorimetry (excitation: 260 nm; emission >370 nm). The unit of enzymatic activity is defined as the quantity of enzyme necessary for generating 1 nmol of α-ribazole 5′-phosphate per hour under these conditions.
d) Specificity of NN:DBI PRT for DBI. […]

precorrin-6x reductase = biological target: T2, precorrin-6x reductase (Sinorhizobium sp, UniProt P21920); assay: Reaction catalysed by precorrin-6x reductase, cofactor dependence; type: biochemical, Pseudomonas denitrificans
T2 construct: the amino-terminal methionine is definitely excised in vivo by methionine aminopeptidase; made in house; host or cells: Pseudomonas denitrificans SC510 Rif^r carrying plasmid pXL253 (8.7-kb EcoRI fragment, cobF to cobM, in pKT230)
T2 sequence (P21920 2-261): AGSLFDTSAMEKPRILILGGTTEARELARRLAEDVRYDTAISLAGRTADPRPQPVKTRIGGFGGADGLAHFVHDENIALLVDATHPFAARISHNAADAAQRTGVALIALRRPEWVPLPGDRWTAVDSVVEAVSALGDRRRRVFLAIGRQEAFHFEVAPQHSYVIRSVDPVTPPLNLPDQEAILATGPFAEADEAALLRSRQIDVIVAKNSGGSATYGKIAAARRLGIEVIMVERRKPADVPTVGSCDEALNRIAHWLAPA
Protocol: The fractions containing precorrin-6x reductase activity (approximately 0.05 unit, U) are incubated at 30° C. for 60 min in 0.1 M Tris-HCl buffer pH 7.7 (250 μl) in the presence of 1 mM EDTA, 500 μM NADPH, 25 μM [methyl-^3H]SAM (80 μCi/μmol), 4 μM precorrin-6x (Thibaut et al., 1990) and partially purified dihydroprecorrin-6x methylase (0.5 U) (see preparation below). The reaction is then stopped by heating to 80° C. for 5 min and, after centrifugation at 5000×g for 5 min, the supernatant is injected onto a DEAE-Sephadex column (containing 200 μl of gel). The column is then washed extensively with the Tris-HCl buffer, and the compounds bound are eluted with 1 M HCl (4 ml). The radio activity in this eluent is counted by liquid scintillation counting. The unit of enzymatic activity is defined as the quantity of enzyme necessary for reducing 1 nmol of precorrin-6x per h under these conditions.
When the purified enzyme (or an active fraction during purification, or even a crude enzyme extract) is incubated under the conditions of the assay of activity, but in the absence of SAM and of dihydroprecorrin-6x methylase, the product of the reaction can then be purified by HPLC in the system described for the purification of precorrin-6x (see Example 6.1.4.d). […]

[2] = biological target: T3, cobalamin-5′-phosphate synthase (Sinorhizobium sp, UniProt P29936); assay: Specificity of cobalamin-5′-phosphate synthase; type: biochemical, Pseudomonas denitrificans; conditions: partially purified enzyme
T3 construct: made in house; host or cells: Pseudomonas denitrificans SC510 Rif^r carrying plasmid pXL1490B (own cobV gene amplified)
T3 sequence (P29936 whole entry): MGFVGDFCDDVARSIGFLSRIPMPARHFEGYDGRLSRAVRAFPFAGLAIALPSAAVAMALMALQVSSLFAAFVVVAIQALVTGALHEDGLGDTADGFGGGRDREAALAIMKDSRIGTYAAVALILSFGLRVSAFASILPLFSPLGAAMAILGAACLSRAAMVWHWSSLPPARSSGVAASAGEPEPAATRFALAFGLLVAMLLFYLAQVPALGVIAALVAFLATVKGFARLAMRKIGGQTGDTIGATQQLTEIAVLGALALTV
Protocol: a) Assay of GDP-cobinamide: α-ribazole-5′-phosphate cobinamidephosphotransferase (or cobalamin-5′-phosphate synthase) activity. This example illustrates the assay of an activity directly linked to the pathway of biosynthesis of cobalamines. The enzyme in question is cobalamin-5′-phosphate synthase. The fractions containing the activity (approximately 5 to 10 units) are incubated in darkness at 30° C. in […] buffer pH 9.0 (500 μl) in the presence of 1 mM EDTA, 12.5 mM MgCl2, 50 μM α-ribazole 5′-phosphate and 20 μM GDP-cobinamide [in 5′-deoxy-5′-adenosyl (Ado) or coenzyme form]. After 15 min of incubation, 20 mM potassium cyanide (500 μl) is added and the solution is heated to 80° C. for 10 min. After centrifugation to remove the precipitated matter, the vitamin B12 5′-phosphate present in the supernatant is assayed as described in Example 9. One unit of cobalamin-5′-phosphate synthase is defined as the quantity of enzyme necessary for generating 1 nmol of cobalamine 5′-phosphate per h under the conditions described above.
This experiment illustrates how a P. denitrificans enzymatic activity participating in the pathway of biosynthesis of cobalamines of P. denitrificans can be partially purified. Using the assay described above, the purification of cobalamin 5′-phosphate synthase is carried out. For this purpose, in a typical purification experiment, wet cells (10 g) of strain SC510 Rif^r, into which plasmid pXL1490B has been introduced as described previously, are used. Plasmid pXL1490B is described in FIG. 38: this plasmid corresponds to the 3.85-kb SstI-SstI-BamHI fragment cloned into PKT230. This plasmid carries the P. denitrificans cobU and cobV genes. […] The SC510 Rif^r pXL1490B cells are obtained by culture in PS4 medium supplemented with lividomycin, as described above. […]
c) Specificity of cobalamin-5′-phosphate synthase. […] Intracellular α-ribazole 5′-phosphate and α-ribazole concentrations of 30 and 700 μM, respectively, were measured by HPLC during the production of cobalamins by SC510 Rif^r in PS4 medium under the culture conditions described in Example 6.1.5a).

[3] = biological target: T4, Methanobacterium ivanovii SUMT (Methanobacterium ivanovii, UniProt P29564); assay: Catalytic properties of purified M. ivanovii SUMT; type: biochemical
T4 construct: endogenous in cells; host or cells: Methanobacterium ivanovii DSM2611 (enzyme purified to homogeneity from the natural organism)
T4 sequence (P29564 2-231 limits assumed): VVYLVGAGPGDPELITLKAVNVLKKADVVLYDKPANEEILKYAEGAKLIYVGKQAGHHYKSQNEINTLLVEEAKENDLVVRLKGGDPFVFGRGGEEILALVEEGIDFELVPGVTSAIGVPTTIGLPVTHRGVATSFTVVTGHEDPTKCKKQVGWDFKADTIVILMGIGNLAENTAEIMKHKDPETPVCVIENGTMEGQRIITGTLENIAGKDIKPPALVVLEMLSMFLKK
Protocol: Methanobacterium ivanovii strain DSM2611 is cultured as described (Souillard et al., 1988). Wet cells (12 g) are obtained. The latter are resuspended in 0.1 M Tris-HCl buffer pH 7.6 (80 ml) containing 5 mM DTT and 1 mM EDTA, and sonicated for 1 h 30 min at 4° C. and then centrifuged for 1 h at 50,000 g. Free tetrapyrrole compounds are then cleared from the extract by passage through a small DEAE-Sephadex A25 column set up in the same buffer. The proteins precipitating at between 55 and 75% ammonium sulphate saturation are solubilised in a 0.1 M Tris-HCl pH 7.5, 0.5 mM DTT, 1.7 M ammonium sulphate buffer and injected onto a Phenyl-Superose HR 10/10 (Pharmacia France/SA) column eluted with a decreasing gradient (1.7 M to 0 M with respect to ammonium sulphate). The active fractions are passed through a Sephadex G-25 column equilibrated with 0.1 M Tris-HCl pH 7.5, 0.5 mM DTT, 25% glycerol buffer (buffer A), then injected onto a Mono Q HR 5/5 (Pharmacia France SA) column equilibrated with buffer A and eluted with a KCl gradient of 0 to 0.3 M; this step is repeated a second time under the same conditions. Gel permeation chromatography of the active fraction of the preceding step on Bio-Sil TSK-250 (BioRad France SA) enables a protein which is homogeneous in SDS-PAGE and in RP-HPLC (C-18 pBondapak) to be obtained. The different steps of purification, with their yield, as well as their purification factor, are described in the table below.
As shown in this table, the total purification factor is more than 4,500. Some properties of the pure enzyme have been studied according to methods already described (Blanche et al., 1989). This enzyme does indeed have SUMT activity, i.e. it does indeed catalyse the SAM-dependant transfer of two methyl groups at C-2 and at C-7 of uro'gen III.
The Vmax of M. ivanovii SUMT was determined. It is 1537 U/mg of proteins. This value is greater than that found for P. denitrificans SUMT, already determined under optimal conditions for the reaction (taking account of its inhibition by uro'gen III), 489 U/mg of proteins (Blanche et al., 1989).

For `Cc1ccc2nc[nH]c2c1` [5-methylbenzimidazole], the “reaction rate compared to the natural substrate (5,6-dimethylbenzimidazole)” value [1] was 92%.

`c1ccc2[nH]cnc2c1` [Benzimidazole] was tested, and the “reaction rate compared to the natural substrate (5,6-dimethylbenzimidazole)” value [1] was 157%.

`NC(=O)C1=CN([C@@H]2O[C@H](COP(=O)(O)OP(=O)(O)OC[C@H]3O[C@@H](n4cnc5c(N)ncnc54)[C@H](O)[C@@H]3O)[C@@H](O)[C@H]2O)C=CC1` [NADH] was tested, and the “cofactor for reduction of precorrin-6x” value (precorrin-6x reductase) was “NADPH cannot be replaced by NADH”.

In the case of `NC(=O)C1=CN([C@@H]2O[C@H](COP(=O)(O)OP(=O)(O)OC[C@H]3O[C@@H](n4cnc5c(N)ncnc54)[C@H](OP(=O)(O)O)[C@@H]3O)[C@@H](O)[C@H]2O)C=CC1` [NADPH], the “cofactor for reduction of precorrin-6x” value (precorrin-6x reductase) is reported as “strictly NADPH-dependant”.

`Cc1cc2ncn([C@H]3O[C@H](COP(=O)(O)O)[C@@H](O)[C@H]3O)c2cc1C` [α-ribazole 5′-phosphate] was tested, and the Km [2] was about 2.7 µM.

Molecule `Cc1cc2ncn([C@H]3O[C@H](CO)[C@@H](O)[C@H]3O)c2cc1C` [α-ribazole] has a Km [2] of 7.8 µM.

For GDP-cobinamide [(Ado)GDP-cobinamide], the Km [2] was 0.9 µM.

B1: M. ivanovii SUMT: SAM:uro'gen III methyltransferase purified from Methanobacterium ivanovii, encoded by corA (protein)
chain: MVVYLVGAGPGDPELITLKAVNVLKKADVVLYDKPANEEILKYAEGAKLIYVGKQAGHHYKSQNEINTLLVEEAKENDLVVRLKGGDPFVFGRGGEEILALVEEGIDFELVPGVTSAIGVPTTIGLPVTHRGVATSFTVVTGHEDPTKCKKQVGWDFKADTIVILMGIGNLAENTAEIMKHKDPETPVCVIENGTMEGQRIITGTLENIAGKDIKPPALVVLEMLSMFLKK
B1 was tested, and the Vmax [3] was 1537 U/mg of proteins.
